Results reported in patent US20250179125A1, “Alpha-sheet Polypeptides and Their Use” (University of Washington, priority 2021, published 2025).
Bridge positions count the residues as written; N and C are the ends. Square brackets hold non-standard residues; d marks the D form. Peptide text beside a SMILES is read from it. I, II: the chains in the order shown.

Columns and labels:
Aβ42 = target: T1, Aβ42 (Homo sapiens, UniProt P05067); type: biochemical; conditions: 7500.0
T1 construct: Remove Aβ42 film(s) from −80° C
Procedure: Peptides were co-incubated with 75 μM Aβ in PBS aggregation buffer and monitored for β-sheet formation via ThT fluorescence over time. In each case, AB alone (ie Aβ aggregating in PBS without any inhibitor) was run as the standard control and used for calculating % inhibition by the following equation:
Importantly, each value had its corresponding ‘blank’ subtracted from the raw data, ie: End Inhibitor value=Raw value at the end of the assay-value for peptide alone in PBS at the given concentration.
The ‘blank’ values never exceeded more than 2× starting Aβ value to ensure that overcorrection is not the source of efficacy in data processing-end Aβ value was on average 20× starting Aβ value. Peptide concentration was varied while Aβ concentration remained fixed to investigate the potency of the designs at equal- and sub-stoichiometric ratios of AP: Aβ (ratios investigated include 1:1, 1:10, and 1:100). […]
Inhibition of Abeta aggregation was assessed in our standard ThT assay and the results can be compared to those in the table comparing different peptides in their monomeric and dimeric forms with 10-fold excess of Abeta.
Aβ aggregation and fibril formation, as well as inhibition experiments with α-sheet peptides, were monitored via ThT fluorescence according to the procedure, as follows. […]

[1] = tested on: curli amyloid fibril formation in live E. coli; test: TEM of curli amyloid fibril formation in E. coli biofilms; type: cell-based; conditions: equimolar concentrations
Procedure: FIG. 3(a-c).TEM images reveal extensive curli amyloid fibril formation in (a) peptide-free biofilms and biofilms grown in the presence of (c) P1, but not those grown in the presence of (b) AP195 dimer (Scale bars=2 μm). P1 and AP195 were added at equimolar concentrations. AP195 is an α-sheet peptide and P1 is a random coil control.
The random coil peptide control (P1) had no effect.

E. coli GERB319 biofilms = test: Biofilm ThT assay in clinical isolate E. coli GERB319; type: cell-based; conditions: dimeric peptides 8 μM, AP5 and P1 16 μM
Procedure: (§1) FIG. 4(a-b). Inhibition of amyloid formation by alpha-sheet designs in live E. coli clinical isolates. […] The concentrations are provided for the dimers, but the P1 and AP5 monomers were double that concentration to provide the same number of monomer units for comparison of the designs (ex. where it says 5 μM applied AP5, it was actually 10 μM). cNFU=corrected, normalized fluorescence units, where normalized signals were corrected by the nonspecific ThT fluorescence of E. coli UTI89 ΔcsgA biofilms. (b) Synthetic α-sheet peptides AP193 and AP195 decreased the ThT fluorescence of E. coli GERB319 biofilms, a clinical UTI isolate with resistance to gentamicin and ciprofloxacin (the dimeric peptides were added at 8 μM and AP5 and P1 were 16 μM to provide the same monomer equivalents). The unstructured control peptide P1 had no effect when applied at the same concentration. […]
Overnight cultures were grown in LB medium for ˜18 h. […] Peptide stocks were dissolved in water and concentrations were determined by Nanodrop™ (Thermo Scientific; Waltham, MA). […] Planktonic cells were spun down and resuspended in PBS, and the optical density of both planktonic and rinse samples was determined at 600 nm to estimate cell densities. […] 100 μL of each biofilm suspension was then transferred to a black-walled, clear-bottom 96 well plate for measurements in a plate reader (PerkinElmer; Waltham, MA). […]

[2] = tested on: E. coli UTI89 WT biofilms; test: Biofilm ThT assay in live E. coli UTI89 WT; type: cell-based; conditions: 48 h growth, dimers 1-8 μM, monomers double
Procedure: FIG. 2. Protocol to test inhibition of biofilm amyloid formation in live E. coli. Amyloid formation is assessed through a ThT assay like that used with Abeta and IAPP above. In addition, inhibition of amyloid disrupts the biofilm, leading to an increase in planktonic free-floating bacteria cells, which are then susceptible to antibiotics.
as §1
Overnight cultures were grown in LB medium for ˜18 h. […] Peptide stocks were dissolved in water and concentrations were determined by Nanodrop™ (Thermo Scientific; Waltham, MA). […]

T1 sequence (P05067 672-713 limits assumed): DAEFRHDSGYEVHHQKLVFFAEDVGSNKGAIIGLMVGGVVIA

Compound	% Inhibition 1:10 (AP peptide:Abeta42) (Aβ42)	curli amyloid fibril formation (TEM) [1]	ThT fluorescence of biofilms (E. coli GERB319 biofilms)	amyloid content in biofilms, ThT fluorescence (cNFU) [2]
CSCC[C@H](NC(=O)[C@@H](CCC(=O)O)NC(=O)CNC(=O)[C@@H](CCCNC(=N)N)NC(C)=O)C(=O)N[C@H](CC(N)=O)C(=O)N[C@@H](CC(C)C)C(=O)N[C@H](CO)C(=O)N[C@@H](Cc1c[nH]c2ccccc12)C(=O)N[C@H](CCSC)C(=O)N[C@H](CC(N)=O)C(=O)N[C@H](CCC(=O)O)C(=O)N[C@H](Cc1ccc(O)cc1)C(=O)N[C@H](Cc1ccc(O)cc1)C(=O)NCC(=O)N[C@H](Cc1c[nH]c2ccccc12)C(=O)N[C@H](C(=O)N[C@H](CCSC)C(=O)N[C@@H](CC(N)=O)C(=O)N[C@H](CCSC)C(=O)N[C@@H](CCCCN)C(=O)N[C@H](CS)C(=O)NCC(=O)N[C@H](CCCNC(=N)N)C(N)=O)[C@@H](C)O [AP527m, Ac-rGeMnLsWmneyyGwTmNmKcGr-NH2] (Ac-[dR]G[dE]M[dN]L[dS]W[dM][dN][dE][dY][dY]G[dW]T[dM]N[dM]K[dC]G[dR]-NH2)	14%			
I: Ac-[dR]G[dE]M[dN]L[dS]W[dM][dN][dE][dY][dY]G[dW]T[dM]N[dM]K[dC]G[dR]-NH2 / II: Ac-[dR]G[dE]M[dN]L[dS]W[dM][dN][dE][dY][dY]G[dW]T[dM]N[dM]K[dC]G[dR]-NH2 (disulfide I:21-II:21) [AP527d, Ac-rGeMnLsWmneyyGwTmNmKcGr-NH2]	96%			
I: Ac-RGN[dW]N[dE]S[dK]MNEYSGW[dM]L[dM]C[dT]MGR-NH2 / II: Ac-RGN[dW]N[dE]S[dK]MNEYSGW[dM]L[dM]C[dT]MGR-NH2 (disulfide I:19-II:19) [AP500d, Ac-RGNwNeSkMNEYSGWmLmCtMGR-NH2]		inhibition of fibril formation	significant decrease	dose-dependent reduction
